Results: article PMC5218480 (PLoS ONE, 2017)

Tested on: MV-4-11 cells
Assay: Gene expression microarray analysis (Affymetrix PrimeView) and GSEA
Format: cell-based, human
Design: RFU PODN (11730768_x_at) / Fold change /veh PODN (11730768_x_at) / RFU LINC00158 (11744669_a_at) / Fold change /veh LINC00158 (11744669_a_at) / RFU DUSP10 (11751237_a_at) / Fold change /veh DUSP10 (11751237_a_at) / RFU ID3 (11757404_x_at) / Fold change /veh ID3 (11757404_x_at) / RFU PLEKHG5 (11737974_s_at) / Fold change /veh PLEKHG5 (11737974_s_at) / RFU LRRC4B (11730491_at) / Fold change /veh LRRC4B (11730491_at) / RFU GIMAP4 (11747438_a_at) / Fold change /veh GIMAP4 (11747438_a_at) / RFU KRT8 (11758183_x_at) / Fold change /veh KRT8 (11758183_x_at) / RFU CNN1 (11734310_a_at) / Fold change /veh CNN1 (11734310_a_at) / RFU VPS37D (11726825_at) / Fold change /veh VPS37D (11726825_at) / RFU C10orf10 (11716522_x_at) / Fold change /veh C10orf10 (11716522_x_at) / RFU KIR2DL2 /// KIR2DL4 /// KIR2DL5A /// KIR2DL5B /// KIR2DS1 /// KIR2DS2 /// KIR2DS3 /// KIR2DS4 /// KIR3DL3 /// KIR3DL3 /// KIR3DS1 (11738374_at) / Fold change /veh KIR2DL2 /// KIR2DL4 /// KIR2DL5A /// KIR2DL5B /// KIR2DS1 /// KIR2DS2 /// KIR2DS3 /// KIR2DS4 /// KIR3DL3 /// KIR3DL3 /// KIR3DS1 (11738374_at) / RFU C1QL1 (11718748_at) / Fold change /veh C1QL1 (11718748_at) / RFU TMPRSS4 (11747572_a_at) / Fold change /veh TMPRSS4 (11747572_a_at) / RFU HAMP (11756126_x_at) / Fold change /veh HAMP (11756126_x_at) / RFU RNFT2 (11725882_a_at) / Fold change /veh RNFT2 (11725882_a_at) / RFU NR4A2 (11747474_a_at) / Fold change /veh NR4A2 (11747474_a_at) / RFU ABCC12 (11746883_a_at) / Fold change /veh ABCC12 (11746883_a_at) / RFU TMEM136 (11760407_x_at) / Fold change /veh TMEM136 (11760407_x_at) / RFU CLDN22 /// WWC2 (11732394_at) / Fold change /veh CLDN22 /// WWC2 (11732394_at) / RFU HLA-DPB1 (11760878_x_at) / Fold change /veh HLA-DPB1 (11760878_x_at) / RFU SPINT1 (11716480_a_at) / Fold change /veh SPINT1 (11716480_a_at) / RFU GAP43 (11754022_s_at) / Fold change /veh GAP43 (11754022_s_at) / RFU A4GNT (11735810_at) / Fold change /veh A4GNT (11735810_at) / RFU PRB3 (11715151_x_at) / Fold change /veh PRB3 (11715151_x_at) / RFU TUBB4B (11761932_at) / Fold change /veh TUBB4B (11761932_at) / RFU CAPN14 (11732068_a_at) / Fold change /veh CAPN14 (11732068_a_at) / RFU TMCC2 (11721928_a_at) / Fold change /veh TMCC2 (11721928_a_at) / RFU IRGQ (11745062_a_at) / Fold change /veh IRGQ (11745062_a_at) / RFU FAM174B (11720279_a_at) / Fold change /veh FAM174B (11720279_a_at) / RFU TMPRSS4 (11748680_a_at) / Fold change /veh TMPRSS4 (11748680_a_at) / RFU FAM212B (11763350_a_at) / Fold change /veh FAM212B (11763350_a_at) / RFU PLEKHG5 (11743358_a_at) / Fold change /veh PLEKHG5 (11743358_a_at) / RFU ZSCAN30 (11745921_a_at) / Fold change /veh ZSCAN30 (11745921_a_at) / RFU CMKLR1 (11741424_a_at) / Fold change /veh CMKLR1 (11741424_a_at) / RFU LOC101060620 /// MAPK8IP1 (11723275_at) / Fold change /veh LOC101060620 /// MAPK8IP1 (11723275_at) / RFU SPTSSB (11747773_x_at) / Fold change /veh SPTSSB (11747773_x_at) / RFU PRSS12 (11739890_at) / Fold change /veh PRSS12 (11739890_at) / RFU BIN1 (11741810_x_at) / Fold change /veh BIN1 (11741810_x_at) / RFU WNT11 (11732464_a_at) / Fold change /veh WNT11 (11732464_a_at) / RFU C10orf10 (11716521_a_at) / Fold change /veh C10orf10 (11716521_a_at) / RFU C5orf56 (11738089_at) / Fold change /veh C5orf56 (11738089_at) / RFU CYB561 (11721691_x_at) / Fold change /veh CYB561 (11721691_x_at) / RFU ANKRD19P (11752326_a_at) / Fold change /veh ANKRD19P (11752326_a_at) / RFU OR2T12 /// OR2T33 /// OR2T8 (11738714_s_at) / Fold change /veh OR2T12 /// OR2T33 /// OR2T8 (11738714_s_at) / RFU VCAN (11748164_a_at) / Fold change /veh VCAN (11748164_a_at) / RFU JSRP1 (11732532_at) / Fold change /veh JSRP1 (11732532_at) / RFU KRTAP10-11 (11738290_x_at) / Fold change /veh KRTAP10-11 (11738290_x_at) / RFU MYO3A (11730013_a_at) / Fold change /veh MYO3A (11730013_a_at) / RFU EBF3 (11725865_a_at) / Fold change /veh EBF3 (11725865_a_at) / RFU CAMK2N1 (11719241_x_at) / Fold change /veh CAMK2N1 (11719241_x_at) / RFU C5orf56 (11738088_a_at) / Fold change /veh C5orf56 (11738088_a_at) / RFU OLFML3 (11715873_a_at) / Fold change /veh OLFML3 (11715873_a_at) / RFU LOC100653217 /// NTM (11731650_a_at) / Fold change /veh LOC100653217 /// NTM (11731650_a_at) / RFU MAPK11 (11762145_a_at) / Fold change /veh MAPK11 (11762145_a_at) / RFU FIZ1 (11724087_x_at) / Fold change /veh FIZ1 (11724087_x_at) / RFU OASL (11726364_x_at) / Fold change /veh OASL (11726364_x_at) / RFU SOX15 (11748057_x_at) / Fold change /veh SOX15 (11748057_x_at) / RFU CD79A (11719716_a_at) / Fold change /veh CD79A (11719716_a_at) / RFU HIST1H1D (11736915_at) / Fold change /veh HIST1H1D (11736915_at) / RFU CASKIN2 (11723855_a_at) / Fold change /veh CASKIN2 (11723855_a_at) / RFU LOC730098 (11760151_x_at) / Fold change /veh LOC730098 (11760151_x_at) / RFU OR4N2 (11742367_at) / Fold change /veh OR4N2 (11742367_at) / RFU PRRT2 (11749266_a_at) / Fold change /veh PRRT2 (11749266_a_at) / RFU SNX32 (11753110_a_at) / Fold change /veh SNX32 (11753110_a_at) / RFU CDHR5 (11726645_a_at) / Fold change /veh CDHR5 (11726645_a_at) / RFU RCAN1 (11760418_a_at) / Fold change /veh RCAN1 (11760418_a_at) / RFU FAM167A (11723789_a_at) / Fold change /veh FAM167A (11723789_a_at) / RFU FAM26E (11764081_at) / Fold change /veh FAM26E (11764081_at) / RFU ISYNA1 (11749810_s_at) / Fold change /veh ISYNA1 (11749810_s_at) / RFU ACY1 (11761880_at) / Fold change /veh ACY1 (11761880_at) / RFU 11764098_at / Fold change /veh 11764098_at / RFU SAMD14 (11745864_x_at) / Fold change /veh SAMD14 (11745864_x_at) / RFU NPB (11741838_a_at) / Fold change /veh NPB (11741838_a_at) / RFU TMPRSS6 (11731388_a_at) / Fold change /veh TMPRSS6 (11731388_a_at) / RFU KRTAP10-2 (11738614_at) / Fold change /veh KRTAP10-2 (11738614_at) / RFU ARHGAP8 /// PRR5-ARHGAP8 (11727945_x_at) / Fold change /veh ARHGAP8 /// PRR5-ARHGAP8 (11727945_x_at) / RFU KRTAP5-7 /// NADSYN1 (11734609_at) / Fold change /veh KRTAP5-7 /// NADSYN1 (11734609_at) / RFU RASL12 (11751679_a_at) / Fold change /veh RASL12 (11751679_a_at) / RFU CDKN2B (11736163_a_at) / Fold change /veh CDKN2B (11736163_a_at) / RFU PRF1 (11729649_at) / Fold change /veh PRF1 (11729649_at) / RFU, ZNF638 /// ZNF638-IT1 / Fold change vs veh, ZNF638 /// ZNF638-IT1 / RFU, PANK3 / Fold change vs veh, PANK3 / RFU, SH3YL1 / Fold change vs veh, SH3YL1 / RFU, ZEB2 / Fold change vs veh, ZEB2 / RFU, NRIP1 / Fold change vs veh, NRIP1 / RFU, PTTG1IP / Fold change vs veh, PTTG1IP / RFU, CAPN2 / Fold change vs veh, CAPN2 / RFU, MED14 / Fold change vs veh, MED14 / RFU, SNORA58 / Fold change vs veh, SNORA58 / RFU, C1orf63 / Fold change vs veh, C1orf63 / RFU, LRRFIP1 / Fold change vs veh, LRRFIP1 / RFU, NDUFAF7 / Fold change vs veh, NDUFAF7 / RFU, SLC12A2 / Fold change vs veh, SLC12A2 / RFU, IBTK / Fold change vs veh, IBTK / RFU, ESF1 / Fold change vs veh, ESF1 / Fold change vs veh, TMEM50B / RFU, TAOK1 / Fold change vs veh, TAOK1 / RFU, ACBD3 / Fold change vs veh, ACBD3 / RFU, TMA16 / Fold change vs veh, TMA16 / RFU, RWDD3 / Fold change vs veh, RWDD3 / RFU, BCAT1 / Fold change vs veh, BCAT1 / RFU, EDEM3 / Fold change vs veh, EDEM3 / RFU, TMEM33 / Fold change vs veh, TMEM33 / RFU, WDR75 / Fold change vs veh, WDR75 / RFU, AHCTF1 / Fold change vs veh, AHCTF1 / RFU, TFRC / Fold change vs veh, TFRC / RFU, ZDHHC17 / Fold change vs veh, ZDHHC17 / RFU, NOM1 / Fold change vs veh, NOM1 / RFU, ARL8B / Fold change vs veh, ARL8B / RFU, ZBTB11 / Fold change vs veh, ZBTB11 / RFU, TAMM41 / Fold change vs veh, TAMM41 / RFU, KIAA1704 /// LOC100996395 / Fold change vs veh, KIAA1704 /// LOC100996395 / RFU, ING1 / Fold change vs veh, ING1 / RFU, TRMT61B / Fold change vs veh, TRMT61B / RFU, FUBP3 / Fold change vs veh, FUBP3 / RFU, TP53 / Fold change vs veh, TP53 / RFU, TNKS2 / Fold change vs veh, TNKS2 / RFU, ZFP14 / Fold change vs veh, ZFP14 / RFU, ACTR2 / Fold change vs veh, ACTR2 / RFU, PPP3R1 / Fold change vs veh, PPP3R1 / RFU, PIK3R1 / Fold change vs veh, PIK3R1 / RFU, HNRNPA1 / Fold change vs veh, HNRNPA1 / RFU, RNF170 / Fold change vs veh, RNF170 / RFU, ZNF28 / Fold change vs veh, ZNF28 / RFU, RNGTT / Fold change vs veh, RNGTT / RFU, OGT / Fold change vs veh, OGT / RFU, BRD1 / Fold change vs veh, BRD1 / RFU, MARS / Fold change vs veh, MARS / RFU, ZNF655 / Fold change vs veh, ZNF655 / RFU, FAHD1 / Fold change vs veh, FAHD1 / RFU, BDP1 / Fold change vs veh, BDP1 / RFU, LRRCC1 / Fold change vs veh, LRRCC1 / RFU, ARID1A / Fold change vs veh, ARID1A / RFU, ZNF146 / Fold change vs veh, ZNF146 / RFU, ZNF330 / Fold change vs veh, ZNF330 / RFU, GPN3 / Fold change vs veh, GPN3 / RFU, C9orf123 / Fold change vs veh, C9orf123 / RFU, N4BP2L2 / Fold change vs veh, N4BP2L2 / RFU, ARFIP1 / Fold change vs veh, ARFIP1 / RFU, FAM179B / Fold change vs veh, FAM179B / RFU, BCL10 / Fold change vs veh, BCL10 / RFU, UHRF1BP1L / Fold change vs veh, UHRF1BP1L / RFU, BET1 / Fold change vs veh, BET1 / RFU, CNOT2 / Fold change vs veh, CNOT2 / RFU, ZNF268 / Fold change vs veh, ZNF268 / Fold change vs veh, ZNF507 / RFU, DGCR2 / Fold change vs veh, DGCR2 / RFU, WDSUB1 / Fold change vs veh, WDSUB1 / Fold change vs veh, HSP90B1 /// MIR3652 / RFU, ADSS / Fold change vs veh, ADSS / RFU, GK / Fold change vs veh, GK / RFU, ZNF148 / Fold change vs veh, ZNF148 / RFU, TAF9 / Fold change vs veh, TAF9 / RFU, SLC1A5 / Fold change vs veh, SLC1A5 / RFU, SLMO2 / Fold change vs veh, SLMO2 / RFU, ABCC4 / Fold change vs veh, ABCC4 / RFU, LOC101060439 /// RAP1B / Fold change vs veh, LOC101060439 /// RAP1B / RFU, RFX7 / Fold change vs veh, RFX7 / RFU, GTPBP10 / Fold change vs veh, GTPBP10 / RFU, CNEP1R1 / Fold change vs veh, CNEP1R1 / RFU, BIVM-ERCC5 /// ERCC5 / Fold change vs veh, BIVM-ERCC5 /// ERCC5 / RFU, ILF3 / Fold change vs veh, ILF3 / RFU 11762660_at / Fold change /veh 11762660_at / RFU VCAN (11757783_s_at) / Fold change /veh VCAN (11757783_s_at) / RFU DDX43 (11728927_at) / Fold change /veh DDX43 (11728927_at) / RFU KRT8 (11758188_x_at) / Fold change /veh KRT8 (11758188_x_at) / RFU NKD1 (11759106_at) / Fold change /veh NKD1 (11759106_at) / RFU SRD5A1 (11742802_a_at) / Fold change /veh SRD5A1 (11742802_a_at) / RFU TPSAB1 /// TPSB2 (11721975_s_at) / Fold change /veh TPSAB1 /// TPSB2 (11721975_s_at) / RFU GSTM3 (11746129_a_at) / Fold change /veh GSTM3 (11746129_a_at) / RFU IL23R (11737362_x_at) / Fold change /veh IL23R (11737362_x_at) / RFU TMEM51 (11727254_a_at) / Fold change /veh TMEM51 (11727254_a_at) / RFU PIWIL2 (11732686_x_at) / Fold change /veh PIWIL2 (11732686_x_at) / RFU ORM1 (11744905_x_at) / Fold change /veh ORM1 (11744905_x_at) / RFU CCDC152 (11743942_at) / Fold change /veh CCDC152 (11743942_at) / RFU ECM1 (11717891_a_at) / Fold change /veh ECM1 (11717891_a_at) / RFU IL23R (11748794_a_at) / Fold change /veh IL23R (11748794_a_at) / RFU TNFAIP8L3 (11732012_x_at) / Fold change /veh TNFAIP8L3 (11732012_x_at) / RFU MBOAT4 (11741988_at) / Fold change /veh MBOAT4 (11741988_at) / RFU 11764193_at / Fold change /veh 11764193_at / RFU TMEM53 (11763286_at) / Fold change /veh TMEM53 (11763286_at) / RFU MAGEB2 (11727129_at) / Fold change /veh MAGEB2 (11727129_at) / RFU TMEM200A (11744735_a_at) / Fold change /veh TMEM200A (11744735_a_at) / RFU CCDC152 (11751479_a_at) / Fold change /veh CCDC152 (11751479_a_at) / RFU FAM211A (11726209_a_at) / Fold change /veh FAM211A (11726209_a_at) / RFU RGS16 (11746705_a_at) / Fold change /veh RGS16 (11746705_a_at) / RFU VCAN (11755009_s_at) / Fold change /veh VCAN (11755009_s_at) / RFU RHOB (11743442_s_at) / Fold change /veh RHOB (11743442_s_at) / RFU RGS16 (11720943_a_at) / Fold change /veh RGS16 (11720943_a_at) / RFU RGS16 (11720944_at) / Fold change /veh RGS16 (11720944_at) / RFU, VPS4B / Fold change vs veh, VPS4B / RFU, CREB1 / Fold change vs veh, CREB1 / RFU, DNAJC13 / Fold change vs veh, DNAJC13 / RFU, GNAQ / Fold change vs veh, GNAQ / RFU, CDK5R1 / Fold change vs veh, CDK5R1 / RFU, ZRANB3 / Fold change vs veh, ZRANB3 / RFU, CUL4A / Fold change vs veh, CUL4A / RFU, CCNY / Fold change vs veh, CCNY / RFU, UFL1 / Fold change vs veh, UFL1 / RFU, COG3 / Fold change vs veh, COG3 / RFU, DIAPH2 / Fold change vs veh, DIAPH2 / RFU, SKA2 / Fold change vs veh, SKA2 / RFU, AFF3 / Fold change vs veh, AFF3 / RFU, LMF1 / Fold change vs veh, LMF1 / RFU, IPO11 / Fold change vs veh, IPO11 / RFU, DFFB / Fold change vs veh, DFFB / RFU, FOXP1 / Fold change vs veh, FOXP1 / RFU, CARD8 / Fold change vs veh, CARD8 / RFU, STRN3 / Fold change vs veh, STRN3 / RFU, ADK / Fold change vs veh, ADK / RFU, RASSF2 / Fold change vs veh, RASSF2 / RFU, WIPF1 / Fold change vs veh, WIPF1 / RFU, LARP1B / Fold change vs veh, LARP1B / RFU, RASA1 / Fold change vs veh, RASA1 / RFU, RB1 / Fold change vs veh, RB1 / RFU, PPFIA1 / Fold change vs veh, PPFIA1 / RFU, MAT2A / Fold change vs veh, MAT2A / RFU, CCT5 / Fold change vs veh, CCT5 / RFU, WDR92 / Fold change vs veh, WDR92 / RFU, CUX1 / Fold change vs veh, CUX1 / RFU, TTC7A / Fold change vs veh, TTC7A / RFU, TMEM135 / Fold change vs veh, TMEM135 / RFU, DEPTOR / Fold change vs veh, DEPTOR / RFU, CPM / Fold change vs veh, CPM / RFU, DNAJB6 / Fold change vs veh, DNAJB6 / RFU, CACNA2D3 / Fold change vs veh, CACNA2D3 / RFU, DTX4 / Fold change vs veh, DTX4 / RFU, TFCP2 / Fold change vs veh, TFCP2 / RFU, GMCL1 /// GMCL1P1 / Fold change vs veh, GMCL1 /// GMCL1P1 / RFU, AEBP2 / Fold change vs veh, AEBP2 / RFU, SNHG1 /// SNORD22 /// SNORD25 /// SNORD26 /// SNORD27 /// SNORD28 /// SNORD29 /// SNORD31 / Fold change vs veh, SNHG1 /// SNORD22 /// SNORD25 /// SNORD26 /// SNORD27 /// SNORD28 /// SNORD29 /// SNORD31 / Fold change (Aza/veh), C12orf56 (ProbeSet 11735607_a_at) / Fold change (ACY-1035/veh), C12orf56 (ProbeSet 11735607_a_at) / Fold change (Aza/veh), FGFR1OP (ProbeSet 11751329_s_at) / Fold change (ACY-1035/veh), FGFR1OP (ProbeSet 11751329_s_at) / Fold change (Aza/veh), VPS36 (ProbeSet 11739960_a_at) / Fold change (ACY-1035/veh), VPS36 (ProbeSet 11739960_a_at) / RFU SYPL1 (11715823_x_at) / Fold change /veh SYPL1 (11715823_x_at) / RFU IGFBP7 (11715501_s_at) / Fold change /veh IGFBP7 (11715501_s_at) / RFU REEP3 (11722064_at) / Fold change /veh REEP3 (11722064_at) / RFU IGLL1 (11728026_x_at) / Fold change /veh IGLL1 (11728026_x_at): dose or concentration left out as unconfirmed
Conditions: ProbeSet 11739106_a_at; LIST B

## Nc1ccc(-c2cccs2)cc1NC(=O)c1ccc2c(c1)cc(C1CC1)n2CCN1CCOCC1 [ACY-1035]
  Fold change vs veh, TMEM33: 0.87
